The results in this text go back to patent US8653064B2, “Crystalline forms of sodium 4-{[9-chloro-7-(2-fluoro-6-methoxyphenyl)-5H-pyrimido[5,4-D][2]benzazepin-2-yl]amino}-2-methoxybenzoate” (Millennium Pharmaceuticals, Inc., priority 2010, dated 2014).

Molecules are shown by their SMILES.

One series can be described thus: Solubility in water. It counts as physicochemical.
Series [1] in a line: Gravimetric vapor sorption (GVS). To be noted: between 0-90% RH, 10% RH intervals, 25° C. It is filed as physicochemical.

In the case of `COc1cc(Nc2ncc3c(n2)-c2ccc(Cl)cc2C(c2c(F)cccc2OC)=NC3)ccc1C(=O)O` [Form 2, sodium 4-{[9-chloro-7-(2-fluoro-6-methoxyphenyl)-5H-pyrimido[5,4-d][2]benzazepin-2-yl]amino}-2-methoxybenzoate Form 2], the solubility in water entry in “Solubility in water” is reported as “about 8 mg/mL”.

With `COc1cc(Nc2ncc3c(n2)-c2ccc(Cl)cc2C(c2c(F)cccc2OC)=NC3)ccc1C(=O)O` [Form 24, sodium 4-{[9-chloro-7-(2-fluoro-6-methoxyphenyl)-5H-pyrimido[5,4-d][2]benzazepin-2-yl]amino}-2-methoxybenzoate Form 24], in the series “Solubility in water”, the solubility in water result was “about 8 mg/mL”.

As for `COc1cc(Nc2ncc3c(n2)-c2ccc(Cl)cc2C(c2c(F)cccc2OC)=NC3)ccc1C(=O)O` [Form 6, sodium 4-{[9-chloro-7-(2-fluoro-6-methoxyphenyl)-5H-pyrimido[5,4-d][2]benzazepin-2-yl]amino}-2-methoxybenzoate Form 6], in “Solubility in water”, the solubility in water entry is “greater than 10 mg/mL”. Also, the “uptake (change in weight of the sample) in GVS” value in series [1] was 6%.

As to `COc1cc(Nc2ncc3c(n2)-c2ccc(Cl)cc2C(c2c(F)cccc2OC)=NC3)ccc1C(=O)O` [free acid, 4-{[9-chloro-7-(2-fluoro-6-methoxyphenyl)-5H-pyrimido[5,4-d][2]benzazepin-2-yl]amino}-2-methoxybenzoic acid], in “Solubility in water”, the solubility in water entry is recorded as “about 10 μg/mL”.
